Measured values as given in US9358276B2, “Methods of diagnosing and treating small intestinal bacterial overgrowth (SIBO) and SIBO-related conditions” (Cedars-Sinai Medical Center, priority 1999, dated 2016).

How the values were obtained:
intestinal transit = assay: Intestinal transit in multi-fistulated dogs, cumulative % recovery of 99mTc-DTPA; format: in vivo, dog
Outline: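 Fistulated mongrel dogs (~25 kg) had the ~150 cm segment between duodenal and mid-gut fistulas isolated by occluding catheters and perfused at 2 mL/min with buffer plus test agent (some given i.v.). About 20 μCi 99mTc-DTPA was given as a bolus at 60 min of a 90-min perfusion. Mid-gut output was collected every 5 min for 30 min, gamma-counted, and reported as cumulative % recovery.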

SIBO [1] = assay: Neomycin/antibiotic treatment of subjects with fibromyalgia and SIBO; format: in vivo, human
From the text: Of these 37, 28 tested positive for SIBO.
These ten subjects reported a 63±19% overall improvement in their symptoms by VAS scoring. FIG. 3 compares the VAS scores for various symptoms reported by the subjects with a suspected diagnosis of fibromyalgia before and after neomycin treatment. Symptoms included bloating, gas, diarrhea, joint pain and fatigue to treatment. Subjects were asked to identify the symptom most improved. Five subjects reported that pain was the most improved; three subjects reported that the level of fatigue was most improved, and two others reported that their abdominal complaints improved the most. There was a negative correlation between the degree of improvement in the VAS scoring and the amount of residual hydrogen peak seen in LBHT. (Pearson=−0.689, p=0.02; FIG. 4).
Subsequently, forty-six human subjects with FM (ACR criteria) entered a double blind randomized placebo controlled trial. Each subject underwent LBHT, a tender point examination and completed a questionnaire at the initial (baseline) and at every subsequent visit. Subjects were randomized to receive neomycin (500 mg twice daily in liquid form) or a matched placebo, for 10 days. After completion of this treatment, subjects with persistent SIBO received antibiotics (open label) until at least partially eradication was confirmed by LBHT. […] Six out of 20 patients (30%) in the neomycin group achieved complete […] eradication in the blinded arm. […] (Initial data in Table 1a).

SIBO [2] = assay: Case: impaired memory/mentation with SIBO, neomycin; format: in vivo, human; settings: one patient
From the text: The patient was a person with a history of chronic intestinal complaints over several years. They experienced altered bowel habits with alternating diarrhea and constipation with bloating, gas, distension and abdominal pain. Also, they had been diagnosed by several psychiatrists as having psychiatric problems due to decreased mentation from mild senility, and they contemplated psychiatric hospitalization.
SIBO was detected in this patient by LBHT.

Row | Compound | proximal intestinal transit, cumulative % marker recovered (intestinal transit; 60 mM oleate distal gut, Saline (i.v.), Buffer Control 70.11 ± 6.51, five dogs) [%] | marker recovery (intestinal transit; 60 mM oleate in proximal gut + normal saline (jejunal brake), n=3) [%] | marker recovery (intestinal transit; 60 mM oleate in proximal gut with 0 mg naloxone, n=7) [%] | marker recovery (intestinal transit; 60 mM oleate into distal gut, Buffer Control 79.7±5.8%, n=2 dogs) [%] | marker recovery (intestinal transit; 60 mM oleate to distal gut (ileal brake), Buffer Control 81.2%) [%] | marker recovery (intestinal transit; ileal brake (oleate in distal gut, buffer in proximal gut), control 76.3±3.1%, four dogs) [%] | marker recovery (intestinal transit; ileal brake, 60 mM oleate into distal gut, n=2) [%] | marker recovery (intestinal transit; ileal brake, 60 mM oleate to distal gut, no naloxone, n=11) [%] | patients achieving complete eradication of SIBO in the blinded arm (SIBO [1]; six out of 20, 500 mg twice daily liquid, 10 days) [%] | eradication of SIBO (post-treatment LBHT) (SIBO [1]; ten fibromyalgia subjects) | overall improvement in symptoms by VAS scoring (SIBO [1]; ten fibromyalgia subjects, 500 mg twice daily, 10-day course) [%] | quality of life (SIBO [2]) | eradication of SIBO condition (SIBO [2]; 500 mg twice a day for ten days)
1 | CCCCCCCC/C=C\CCCCCCCC(=O)[O-].[Na+] [oleate, sodium oleate] | 26.62 ± 5.36 | 41.6±4.6 | 30.0±3.6 | 25.8±5.2 | 24.1 | 22.9±3.8 | 20±1.8 | 34.6±4.8 |  |  |  |  | 
2 | neomycin |  |  |  |  |  |  |  |  | 30 | at least partially eradicated | 63±19 | dramatic improvement | completely eradicated
